Experiments:
Type in all cases: in vivo
Details in all cases: 50 ppm
Botrytis cinerea = test: Test E: test suspension sprayed on tomato seedlings, inoculated next day with Botrytis cinerea (tomato Botrytis); visual disease rating (100 = 100% disease control, 0 = no control; dash = not tested)
Description: (§1) The resulting test suspensions were then used in Tests A-F. The test suspension was sprayed to the point of run-off on tomato seedlings. The following day the seedlings were inoculated with a spore suspension of Botrytis cinerea (the causal agent of tomato Botrytis) and incubated in a saturated atmosphere at 20° C. for 48 h, and then moved to a growth chamber at 24° C. for 3 days, after which time visual disease ratings were made. A rating of 100 indicates 100% disease control and a rating of 0 indicates no disease control (relative to the controls). A dash (—) indicates the compound was not tested.

Phakopsora pachyrhizi = test: Test D: test solution sprayed on soybean seedlings, inoculated next day with Phakopsora pachyrhizi (Asian soybean rust); visual disease rating (100 = 100% disease control, 0 = no control; dash = not tested)
Source text: General protocol for preparing test suspensions for Tests A-F: the test compounds were first dissolved in acetone in an amount equal to 3% of the final volume and then suspended at the desired concentration (in ppm) in acetone and purified water (50/50 mix by volume) containing 250 ppm of the surfactant PEG400 (polyhydric alcohol esters). The resulting test suspensions were then used in Tests A-F.
The test solution was sprayed to the point of run-off on soybean seedlings. The following day the seedlings were inoculated with a spore suspension of Phakopsora pachyrhizi (the causal agent of Asian soybean rust) and incubated in a saturated atmosphere at 22° C. for 24 h and then moved to a growth chamber at 22° C. for 8 days, after which time visual disease ratings were made.
A rating of 100 indicates 100% disease control and a rating of 0 indicates no disease control (relative to the controls). A dash (—) indicates the compound was not tested.

Zymoseptoria tritici = test: Test A: test solution sprayed on wheat seedlings, inoculated next day with Zymoseptoria tritici (wheat leaf blotch); disease rating (100 = 100% disease control, 0 = no control; dash = not tested)
Description: The resulting test suspensions were then used in Tests A-F. The test solution was sprayed to the point of run-off on wheat seedlings. The following day the seedlings were inoculated with a spore suspension of Zymoseptoria tritici (the causal agent of wheat leaf blotch) and incubated in a saturated atmosphere at 24° C. for 48 h, and then moved to a growth chamber at 20° C. for 17 days, after which time disease ratings were made. A rating of 100 indicates 100% disease control and a rating of 0 indicates no disease control (relative to the controls). A dash (—) indicates the compound was not tested.

[1] = tested on: Puccinia recondita f. sp. tritici; test: Test B: test solution sprayed on wheat seedlings, inoculated next day with Puccinia recondita f. sp. tritici (wheat leaf rust); disease rating (100 = 100% disease control, 0 = no control; dash = not tested)
Source text: The resulting test suspensions were then used in Tests A-F. The test solution was sprayed to the point of run-off on wheat seedlings. […] A rating of 100 indicates 100% disease control and a rating of 0 indicates no disease control (relative to the controls). A dash (—) indicates the compound was not tested.

[2] = tested on: Blumeria graminis f. sp. tritici; test: Test C: test suspension sprayed on wheat seedlings, inoculated next day with Blumeria graminis f. sp. tritici (wheat powdery mildew); visual disease rating (100 = 100% disease control, 0 = no control; dash = not tested)
Description: The resulting test suspensions were then used in Tests A-F. The test suspension was sprayed to the point of run-off on wheat seedlings. The following day the seedlings were inoculated with a spore dust of Blumeria graminis f. sp. tritici, (also known as Erysiphe graminis f. sp. tritici, the causal agent of wheat powdery mildew) and incubated in a growth chamber at 20° C. for 8 days, after which time visual disease ratings were made. A rating of 100 indicates 100% disease control and a rating of 0 indicates no disease control (relative to the controls). A dash (—) indicates the compound was not tested.

Alternaria solani = test: Test F: test suspension sprayed on tomato seedlings, inoculated next day with Alternaria solani (tomato early blight); visual disease rating (100 = 100% disease control, 0 = no control; dash = not tested)
Description: as §1, with “Alternaria solani” for “Botrytis cinerea”, “early blight)” for “Botrytis)”, “27°” for “20°”, “20°” for “24°”

Row | Compound | Test E disease control rating (Botrytis cinerea) | Test D disease control rating (Phakopsora pachyrhizi) | Test A disease control rating (Zymoseptoria tritici) | Test B disease control rating [1] | Test C disease control rating [2] | Test F disease control rating (Alternaria solani) | pest or weed control at 50 ppm (Botrytis cinerea) | pest or weed control at 50 ppm (Phakopsora pachyrhizi) | pest or weed control at 50 ppm (Zymoseptoria tritici) | pest or weed control at 50 ppm [1] | pest or weed control at 50 ppm [2] | pest or weed control at 50 ppm (Alternaria solani)
1 | COc1ccc(Cl)c(-c2nn(C)c(=O)c(OC)c2-c2ccc(F)cc2F)c1 [Compound 48] | 98% | 97% | 100% | 100% | 99% | 99% | – | – | – | – | – | –
2 | Cn1nc(-c2cc(C#N)ccc2Cl)c(-c2ccc(F)cc2Cl)c(Cl)c1=O [Compound 49] | 96% | 96% | 100% | 100% | 98% | 99% | – | – | – | – | – | –
3 | COc1ccc(Cl)c(-c2nn(C)c(=O)c(OC)c2-c2c(F)cccc2F)c1 [Compound 50] | 96% | 36% | 100% | 98% | 99% | 100% | – | – | – | – | – | –
4 | COc1cc(C#N)c(Cl)c(-c2nn(C)c(=O)c(Cl)c2-c2ccc(F)cc2Cl)c1 [Compound 51] | 96% | 100% | 100% | 100% | 99% | 100% | – | – | – | – | – | –
5 | COc1cc(-c2nn(C)c(=O)c(Cl)c2-c2ccc(F)cc2Cl)cc(C#N)c1Cl [Compound 52] | 92% | 98% | 100% | 100% | 99% | 100% | – | – | – | – | – | –
6 | COc1c(-c2ccc(F)cc2Cl)c(-c2cc(C#N)ccc2Cl)nn(C)c1=O [Compound 53] | 92% | 68% | 100% | 100% | 99% | 40% | – | – | – | – | – | –
7 | COc1cc(OC)cc(-c2nn(C)c(=O)c(Cl)c2-c2ccc(F)cc2Cl)c1 [Compound 55] | 99% | 99% | 99% | 100% | 98% | 99% | – | – | – | – | – | –
8 | Cn1nc(-c2ccc(F)cc2Cl)c(-c2ccc(F)cc2Cl)c(Cl)c1=O [Compound 60] | 98% | 93% | 100% | 100% | 99% | 99% | – | – | – | – | – | –
9 | COc1cc(OC)c(Br)c(-c2nn(C)c(=O)c(Br)c2-c2ccc(F)cc2Cl)c1 [Compound 61] | 100% | 99% | 100% | 100% | 94% | 99% | – | – | – | – | – | –
10 | COc1cc(OC)c(Br)c(-c2nn(C)c(=O)c(C)c2-c2ccc(F)cc2Cl)c1 [Compound 64, 6-(2-bromo-3,5-dimethoxyphenyl)-5-(2-chloro-4-fluorophenyl)-2,4-dimethyl-3(2H)-pyridazinone] | – | – | – | – | – | – | 100% | 100% | 100% | 100% | 100% | 100%
11 | COc1cc(OC)cc(-c2nn(C)c(=O)c(C)c2-c2ccc(F)cc2Cl)c1 [Compound 65] | 100% | 94% | 99% | 100% | 98% | 99% | – | – | – | – | – | –
12 | COc1cc(OC)cc(-c2nn(C)c(=O)c(Br)c2-c2ccc(F)cc2Cl)c1 [Compound 67] | 99% | 98% | 99% | 100% | 95% | 99% | – | – | – | – | – | –
13 | COc1ccc(Cl)c(-c2nn(C)c(=O)c(Br)c2-c2c(F)cccc2F)c1 [Compound 69] | 100% | 100% | 100% | 99% | 100% | 100% | – | – | – | – | – | –
14 | Cn1nc(-c2ccc(F)cc2Cl)c(-c2ccc(F)cc2Cl)cc1=O [Compound 70] | 98% | 52% | 93% | 41% | 76% | 0% | – | – | – | – | – | –
15 | COc1cc(C#N)cc(-c2nn(C)c(=O)cc2-c2c(F)cccc2F)c1 [Compound 71] | 16% | 0% | 8% | 0% | 0% | 0% | – | – | – | – | – | –
16 | Cn1nc(-c2ccccc2F)c(-c2ccc(F)cc2Cl)c(Cl)c1=O [Compound 72] | 98% | 75% | 100% | 99% | 99% | 99% | – | – | – | – | – | –
17 | Cn1nc(-c2ccccc2Cl)c(-c2ccc(F)cc2Cl)c(Cl)c1=O [Compound 73] | 99% | 97% | 100% | 100% | 99% | 99% | – | – | – | – | – | –
18 | CCn1nc(-c2cc(OC)cc(OC)c2Br)c(-c2c(F)cccc2F)c(OC)c1=O [Compound 74] | 99% | 75% | 100% | 99% | 98% | 0% | – | – | – | – | – | –
19 | CCn1nc(-c2cc(OC)cc(OC)c2Cl)c(-c2c(F)cccc2F)c(OC)c1=O [Compound 75] | 97% | 69% | 100% | 99% | 98% | 0% | – | – | – | – | – | –
20 | COc1cc(F)cc(-c2nn(C)c(=O)c(Cl)c2-c2ccc(F)cc2Cl)c1 [Compound 76] | 97% | 99% | 100% | 100% | 99% | 99% | – | – | – | – | – | –
21 | COc1cc(OC)c(Br)c(-c2nn(C)c(=O)c(Cl)c2-c2ccc(F)cc2Cl)c1 [Compound 77, 6-(2-bromo-3,5-dimethoxyphenyl)-4-chloro-5-(2-chloro-4-fluorophenyl)-2-methyl-3(2H)-pyridazinone] | – | – | – | – | – | – | 97% | 100% | 100% | 100% | 99% | 100%
22 | COc1cc(OC)cc(-c2nn(C)c(=O)c(OC)c2-c2ccc(F)cc2Cl)c1 [Compound 78] | 95% | 59% | 100% | 99% | 98% | 99% | – | – | – | – | – | –
